Reference: patent US11957669B2, “Pharmaceutical composition containing (R)-N-[1-(3,5-difluoro-4-methansulfonylamino-phenyl)-ethyl]-3-(2-propyl-6-trifluoromethyl-pyridin-3-yl)-acrylamide” (AMOREPACIFIC CORPORATION, priority 2017, dated 2024)

What was measured:
[1] = Solubility of the compound of Formula (1) in various solvents (excess compound, shaking, HPLC); assay type: physicochemical; conditions: for solubility at 24 h: thermodynamic from solid
Method: An excess amount of the compound of Formula (1) was added to 1 mL of each solvent described in Table 1 below and stirred for 24 hours at 25° C. while shaking at 200 rpm (Shaking incubator, SI 600R, JEIO TECH, Korea). Thereafter, a centrifugation was performed at 10,000 rpm for 10 minutes, and the supernatant was filtered using a membrane filter (0.2 μm), then diluted moderately with methanol and analyzed by HPLC.

[2] = as above; assay type: physicochemical

solubility at 24 h ([1]; 25 °C, organic solvent or mixture, in dimethyl sulfoxide, diethylene glycol monoethyl ether, 2-pyrrolidone and polyethylene glycol (summary of Table 1)): ≥ 100 mg/mL
solubility at 24 h ([1]; oil or lipid, in Cocoyl caprylocaprate, 25° C., 24 hours): 0.46 mg/mL
solubility at 24 h ([1]; oil or lipid, in Corn oil, 25° C., 24 hours): 1.8 mg/mL
solubility at 24 h ([1]; oil or lipid, in Ethyl oleate, 25° C., 24 hours): 1 mg/mL
solubility at 24 h ([1]; oil or lipid, in Isopropyl myristate, 25° C., 24 hours): 1.18 mg/mL
solubility at 24 h ([1]; oil or lipid, in Miglyol, 25° C., 24 hours): 1.4 mg/mL
solubility at 24 h ([1]; oil or lipid, in Octyldodecanol, 25° C., 24 hours): 1.77 mg/mL
solubility at 24 h ([1]; oil or lipid, in Oleic acid, 25° C., 24 hours): 0.43 mg/mL
solubility at 24 h ([1]; oil or lipid, in Oleyl Alcohol, 25° C., 24 hours): 6.32 mg/mL
solubility at 24 h ([1]; oil or lipid, in Propylene glycol monocaprylate, 25° C., 24 hours): 75 mg/mL
solubility at 24 h ([1]; oil or lipid, in Propylene glycol monolaurate, 25° C., 24 hours): 7.75 mg/mL
solubility at 24 h ([1]; oil or lipid, in Triglycerides, Medium chain, 25° C., 24 hours): 1.9 mg/mL
solubility at 24 h ([1]; organic solvent or mixture, in 2-Pyrrolidinone, 25° C., 24 hours): 212 mg/mL
solubility at 24 h ([1]; organic solvent or mixture, in Acetonitrile, 25° C., 24 hours): 108 mg/mL
solubility at 24 h ([1]; organic solvent or mixture, in Caprylocaproyl polyoxyl-8 glycerides, 25° C., 24 hours): 46.7 mg/mL
solubility at 24 h ([1]; organic solvent or mixture, in Diethylene glycol monoethyl ether, 25° C., 24 hours): 289 mg/mL
solubility at 24 h ([1]; organic solvent or mixture, in Dimethyl sulfoxide, 25° C., 24 hours): 632 mg/mL
solubility at 24 h ([1]; organic solvent or mixture, in Dimethylacetamide, 25° C., 24 hours): 80 mg/mL
solubility at 24 h ([1]; organic solvent or mixture, in Ethanol, 25° C., 24 hours): 75.3 mg/mL
solubility at 24 h ([1]; organic solvent or mixture, in Glycerol, 25° C., 24 hours): 0.84 mg/mL
solubility at 24 h ([1]; organic solvent or mixture, in Lauroyl macrogol-32 glycerides, 25° C., 24 hours): 24.1 mg/mL
solubility at 24 h ([1]; organic solvent or mixture, in Methanol, 25° C., 24 hours): 178 mg/mL
solubility at 24 h ([1]; organic solvent or mixture, in Oleoyl polyoxyl-6 glycerides, 25° C., 24 hours): 4.36 mg/mL
solubility at 24 h ([1]; organic solvent or mixture, in Poloxamer 124, 25° C., 24 hours): 66.7 mg/mL
solubility at 24 h ([1]; organic solvent or mixture, in Polyethylene glycol(PEG) 300, 25° C., 24 hours): 146 mg/mL
solubility at 24 h ([1]; organic solvent or mixture, in Polyethylene glycol(PEG) 400, 25° C., 24 hours): 168 mg/mL
solubility at 24 h ([1]; organic solvent or mixture, in Polyethylene glycol-35 castor oil, 25° C., 24 hours): 2.7 mg/mL
solubility at 24 h ([1]; organic solvent or mixture, in Polyoxyl 40 hydrogenated castor oil, 25° C., 24 hours): 36 mg/mL
solubility at 24 h ([1]; organic solvent or mixture, in Polysorbate 20, 25° C., 24 hours): 48 mg/mL
solubility at 24 h ([1]; organic solvent or mixture, in Polysorbate 40, 25° C., 24 hours): 37 mg/mL
solubility at 24 h ([1]; organic solvent or mixture, in Polysorbate 60, 25° C., 24 hours): 35 mg/mL
solubility at 24 h ([1]; organic solvent or mixture, in Polysorbate 80, 25° C., 24 hours): 11.8 mg/mL
solubility at 24 h ([1]; organic solvent or mixture, in Propylene glycol, 25° C., 24 hours): 25 mg/mL
solubility at 24 h ([1]; organic solvent or mixture, in Triacetin, 25° C., 24 hours): 56.5 mg/mL
solubility at 24 h ([1]; in Purified water, 25° C., 24 hours): 0.05 mg/mL
solubility ([1]; water, background statement): < 0.1 mg/mL
solubility ([2]; aqueous with cosolvent or surfactant or cyclodextrin, in a 10% (w/w) aqueous solution of PEG 400): ~0.08 mg/mL
solubility in oil ([2]; oil, background statement): significantly low solubility in oil
SMILES: CCCc1nc(C(F)(F)F)ccc1/C=C/C(=O)N[C@H](C)c1cc(F)c(NS(C)(=O)=O)c(F)c1 [compound of Formula (1), (R)—N-[1-(3,5-difluoro-4-methanesulfonylamino-phenyl)-ethyl]-3-(2-propyl-6-trifluoromethyl-pyridin-3-yl)-acrylamide]
